The numbers were not newly measured in patent publication US9820956B2, “Compositions and methods for treating metabolic disorders” (PreKUlab, Ltd., priority 2003, dated 2017), which cites them from elsewhere.

The first series relates to intestinal epithelia transport.
Conditions: not given
Usually Km stands for the concentration of substrate that gives half-maximal velocity. For `N[C@@H](Cc1ccccc1)C(=O)O` [Phe, phenylalanine], the Km was 1000 µM.

As to `CC(C)C[C@H](N)C(=O)O` [Leu, leucine], the Km is 2000 µM.

On to `CC(C)[C@H](N)C(=O)O` [Val, valine], for which the Km was 3000 µM.

Turning to `CSCC[C@H](N)C(=O)O` [Met, methionine], the Km is 5000 µM.

For `N[C@@H](Cc1c[nH]cn1)C(=O)O` [His, histidine], the Km was 6000 µM.

Another series has as its system BBB transport system for basic amino acids. As to conditions: absolute Km at BBB, basic amino acids; read-out: Km.
With `NCCCC[C@H](N)C(=O)O` [Lys, lysine], the Km is 100 µM.

Consider `N[C@@H](Cc1c[nH]cn1)C(=O)O` [His, histidine], for which the Km is 280 µM.

As to `N=C(N)NCCC[C@H](N)C(=O)O` [Arg, arginine], the Km was 90 µM.

The same series, now with this note: apparent Km at BBB; basic aa's; read-out: Km(app).
Take `NCCCC[C@H](N)C(=O)O` [Lys, lysine]: the Km is 250 µM.

For `N[C@@H](Cc1c[nH]cn1)C(=O)O` [His, histidine], the Km is 1100 µM.

As to `N=C(N)NCCC[C@H](N)C(=O)O` [Arg, arginine], the Km was 400 µM.

For the next series, the system named is Phe transport in Caco-2 cells. The following applies: 10 μM Phe, 1 mM of each competing amino acid, Caco-2 monolayers.
Take `N[C@@H](Cc1ccc(O)cc1)C(=O)O` [Tyr, tyrosine]: the “% inhibition of Phe transport” value is 45%.

Take `CC(C)C[C@H](N)C(=O)O` [Leu, leucine]: the “% inhibition of Phe transport” value is on record as 55%.

Consider `NCCCC[C@H](N)C(=O)O` [Lys, lysine], for which the “% inhibition of Phe transport” value is listed as 50%.

As to `N[C@@H](Cc1c[nH]c2ccccc12)C(=O)O` [Trp, tryptophan], the “% inhibition of Phe transport” value is 36%.

Regarding `N[C@@H](Cc1c[nH]cn1)C(=O)O` [His, histidine], the “% inhibition of Phe transport” value is 33%.

The series is the same for the next values; noted with them: Caco-2.
In the case of `CC(C)C[C@H](N)C(=O)O` [Leu, leucine], the “inhibition of Phe transport in human intestinal epithelial cells (in words)” value is listed as “strong inhibitor”.

Consider `NCCCC[C@H](N)C(=O)O` [Lys, lysine], for which the “inhibition of Phe transport in human intestinal epithelial cells (in words)” value is listed as “strong inhibition”.

Still in this series, the particulars now being: Caco-2, measured by Hidalgo; read-out: Km for Phe at the intestinal cell transport system.
Consider `N[C@@H](Cc1ccccc1)C(=O)O` [Phe, phenylalanine], for which the Km was 560 µM.

The next series relates to LNAA transport system in the BBB. As to conditions: absolute Km at BBB, neutral amino acid system; read-out: Km.
`N[C@@H](Cc1ccc(O)cc1)C(=O)O` [Tyr, tyrosine]: the Km is 160 µM.

Turning to `N[C@@H](Cc1ccccc1)C(=O)O` [Phe, phenylalanine], the Km was 120 µM.

`CC(C)C[C@H](N)C(=O)O` [Leu, leucine]: the Km was 150 µM.

Consider `CC(C)[C@H](N)C(=O)O` [Val, valine], for which the Km is 630 µM.

As for `N[C@@H](Cc1c[nH]c2ccccc12)C(=O)O` [Trp, tryptophan], the Km was 190 µM.

In the case of `CC[C@H](C)[C@H](N)C(=O)O` [iLeu, isoleucine], the Km was 330 µM.

On to `CSCC[C@H](N)C(=O)O` [Met, methionine], for which the Km was 190 µM.

As for `C[C@@H](O)[C@H](N)C(=O)O` [Threo], the Km was 730 µM.

Still in this series, the particulars now being: apparent Km at BBB in presence of competing LNAAs; LNAA's; read-out: Km(app).
As for `N[C@@H](Cc1ccc(O)cc1)C(=O)O` [Tyr, tyrosine], the Km was 580 µM.

In the case of `N[C@@H](Cc1ccccc1)C(=O)O` [Phe, phenylalanine], the Km is 450 µM.

With `CC(C)C[C@H](N)C(=O)O` [Leu, leucine], the Km was 530 µM.

Consider `CC(C)[C@H](N)C(=O)O` [Val, valine], for which the Km was 2500 µM.

With `N[C@@H](Cc1c[nH]c2ccccc12)C(=O)O` [Trp, tryptophan], the Km is 710 µM.

`CC[C@H](C)[C@H](N)C(=O)O` [iLeu, isoleucine]: the Km is 1300 µM.

As to `CSCC[C@H](N)C(=O)O` [Met, methionine], the Km was 770 µM.

Consider `C[C@@H](O)[C@H](N)C(=O)O` [Threo], for which the Km is 3000 µM.

The test system of a further series is BBB transport system for acidic amino acids.
Conditions: not given
As to `N[C@@H](CCC(=O)O)C(=O)O` [Glu], the Km is 40 µM.
